According to the NIST ThermoML archive (doi:10.1016/j.jct.2019.01.021):
Where “and” joins values, the source holds several entries; their conditions need not be identical. Equal entries are not always repeated. Numbers after ± are expanded uncertainties.

Assay: molar heat capacity at constant pressure
Conditions: 101.33 kPa, Crystal 2, Small (less than 1 g) adiabatic calorimetry

N.NS(=O)(=O)O [ammonium sulfamate]
Conditions	molar heat capacity at constant pressure
187.31 K	118.02 ± 0.59 J/K/mol
188.37 K	118.34 ± 0.59 J/K/mol
189.42 K	118.66 ± 0.6 J/K/mol
190 K	119.06 ± 0.58 J/K/mol
190.47 K	118.99 ± 0.6 J/K/mol
191.52 K	119.43 ± 0.6 J/K/mol
192.57 K	119.89 ± 0.6 J/K/mol
193.62 K	120.26 ± 0.6 J/K/mol
194.67 K	120.69 ± 0.61 J/K/mol
195.72 K	121.06 ± 0.61 J/K/mol
196.77 K	121.57 ± 0.61 J/K/mol
197.82 K	122.07 ± 0.61 J/K/mol
198.87 K	122.46 ± 0.61 J/K/mol
199.92 K	122.56 ± 0.61 J/K/mol
200 K	122.64 ± 0.58 J/K/mol
200.85 K	122.86 ± 0.62 J/K/mol
201.65 K	123.16 ± 0.62 J/K/mol
202.45 K	123.44 ± 0.62 J/K/mol
203.24 K	123.74 ± 0.62 J/K/mol
204.05 K	123.89 ± 0.62 J/K/mol
204.85 K	124.1 ± 0.62 J/K/mol
205.65 K	124.38 ± 0.62 J/K/mol
206.45 K	124.7 ± 0.62 J/K/mol
207.25 K	124.92 ± 0.62 J/K/mol
208.05 K	125.1 ± 0.62 J/K/mol
208.86 K	125.38 ± 0.62 J/K/mol
209.66 K	125.69 ± 0.62 J/K/mol
210 K	125.96 ± 0.58 J/K/mol
210.46 K	125.83 ± 0.62 J/K/mol
211.26 K	126.04 ± 0.62 J/K/mol
212.07 K	126.32 ± 0.62 J/K/mol
212.87 K	126.64 ± 0.62 J/K/mol
213.68 K	127 ± 0.63 J/K/mol
214.48 K	127.38 ± 0.63 J/K/mol
215.28 K	127.75 ± 0.63 J/K/mol
216.09 K	127.78 ± 0.63 J/K/mol
216.9 K	127.98 ± 0.63 J/K/mol
217.7 K	128.19 ± 0.63 J/K/mol
218.51 K	128.52 ± 0.63 J/K/mol
219.31 K	128.78 ± 0.64 J/K/mol
220 K	129.21 ± 0.58 J/K/mol
220.12 K	129.04 ± 0.64 J/K/mol
220.93 K	129.3 ± 0.64 J/K/mol
221.73 K	129.49 ± 0.64 J/K/mol
222.54 K	129.74 ± 0.64 J/K/mol
223.35 K	130.02 ± 0.64 J/K/mol
224.16 K	130.26 ± 0.64 J/K/mol
224.97 K	130.53 ± 0.64 J/K/mol
225.78 K	130.71 ± 0.64 J/K/mol
226.59 K	130.98 ± 0.65 J/K/mol
227.4 K	131.32 ± 0.65 J/K/mol
228.21 K	131.61 ± 0.65 J/K/mol
229.02 K	131.83 ± 0.65 J/K/mol
229.83 K	132.08 ± 0.65 J/K/mol
230 K	132.37 ± 0.58 J/K/mol
230.64 K	132.31 ± 0.65 J/K/mol
231.45 K	132.78 ± 0.66 J/K/mol
232.27 K	133.46 ± 0.66 J/K/mol
233.08 K	133.22 ± 0.66 J/K/mol
233.89 K	133.51 ± 0.66 J/K/mol
234.71 K	133.83 ± 0.66 J/K/mol
235.52 K	134.25 ± 0.66 J/K/mol
236.33 K	134.61 ± 0.66 J/K/mol
237.15 K	134.97 ± 0.67 J/K/mol
237.96 K	135.18 ± 0.67 J/K/mol
238.78 K	135.77 ± 0.67 J/K/mol
239.59 K	135.43 ± 0.67 J/K/mol
240 K	135.44 ± 0.58 J/K/mol
240.41 K	136.44 ± 0.67 J/K/mol
241.22 K	136.59 ± 0.67 J/K/mol
242.04 K	136.32 ± 0.67 J/K/mol
242.86 K	137.27 ± 0.67 J/K/mol
243.68 K	137.4 ± 0.67 J/K/mol
244.44 K	137.03 ± 0.67 J/K/mol
244.5 K	136.97 ± 0.67 J/K/mol
244.81 K	137.21 ± 0.67 J/K/mol
244.94 K	137.26 ± 0.67 J/K/mol
245.31 K	136.68 ± 0.67 J/K/mol
245.38 K	137.26 ± 0.67 J/K/mol
245.44 K	137.55 ± 0.67 J/K/mol
245.94 K	137.54 ± 0.67 J/K/mol
245.96 K	137.42 ± 0.67 J/K/mol
246.13 K	137.45 ± 0.67 J/K/mol
246.46 K	137.69 ± 0.67 J/K/mol
246.53 K	137.6 ± 0.67 J/K/mol
246.95 K	137.65 ± 0.67 J/K/mol
246.96 K	137.71 ± 0.67 J/K/mol
247.11 K	137.65 ± 0.67 J/K/mol
247.46 K	137.8 ± 0.67 J/K/mol
247.68 K	138 ± 0.67 J/K/mol
247.77 K	137.93 ± 0.67 J/K/mol
247.97 K	138.06 ± 0.67 J/K/mol
248.25 K	138.01 ± 0.67 J/K/mol
248.47 K	138.27 ± 0.67 J/K/mol
248.59 K	138.16 ± 0.67 J/K/mol
248.83 K	138.31 ± 0.67 J/K/mol
248.98 K	138.36 ± 0.67 J/K/mol
249.41 K	138.87 ± 0.67 J/K/mol
249.42 K	138.7 ± 0.67 J/K/mol
249.48 K	138.72 ± 0.67 J/K/mol
249.98 K	139.15 ± 0.68 J/K/mol and 138.93 ± 0.68 J/K/mol
250.24 K	139.23 ± 0.68 J/K/mol
250.49 K	139.26 ± 0.68 J/K/mol
250.56 K	139.43 ± 0.68 J/K/mol
250.99 K	139.62 ± 0.68 J/K/mol
251.06 K	139.79 ± 0.68 J/K/mol
251.14 K	139.9 ± 0.68 J/K/mol
251.5 K	140.25 ± 0.68 J/K/mol
251.71 K	140.3 ± 0.68 J/K/mol
251.88 K	140.46 ± 0.68 J/K/mol
252 K	140.41 ± 0.68 J/K/mol
252.28 K	140.89 ± 0.68 J/K/mol
252.51 K	140.56 ± 0.68 J/K/mol
252.7 K	140.98 ± 0.69 J/K/mol
252.86 K	141.23 ± 0.69 J/K/mol
253.02 K	141.02 ± 0.69 J/K/mol
253.43 K	141.89 ± 0.69 J/K/mol
253.52 K	141.72 ± 0.69 J/K/mol and 141.4 ± 0.69 J/K/mol
254.01 K	143.16 ± 0.7 J/K/mol
254.03 K	142.77 ± 0.7 J/K/mol
